The values below come from patent publication US20080206203A1, “Method for Inhibiting Tumor Metastasis” (Inflammation Research Center Company Ltd., priority 2004, published 2008).

The subject of data set [1] is permeability of blood brain barrier and infiltration of white blood cells to cerebrospinal fluid caused by arachidonic acid. In words: arachidonic acid-induced central nervous system inflammation (CSF volume and WBC counts via subarachnoid cannula). Type of data set: in vivo, rat. From the text:
To investigate the role of leukotriene antagonists in the treatment of inflammation, a sensitive and quantitative method to measure inflammation for the central nervous system was developed. Important changes in the inflammatory process can be monitored, as both the permeability of blood brain barrier (BBB) and the infiltration of white blood cells (WBC) to cerebrospinal fluid (CSF) caused by arachidonic acid can be measured over time from the same experimental animal. In particular, the effect of the leukotriene C4 and D4 antagonist, pranlukast, was studied using this method. Changes in the inflammatory process of both the permeability of BBB and the infiltration of white blood cells (WBC) caused by administering arachidonic acid as a nociceptive stimulus were observed.
Male rats, approximately 350-400 g, were anesthetized with sodium pentobarbital at a dose of 50 mg/kg intraperitoneally (i.p.). Animals were then placed in a stereotaxic unit. Fur from the top of the head to neck was shaved. The study area was disinfected with 70% ethanol followed by a 10% providone-iodine solution. Skin and muscle over the cervical cord were dissected until cervical vertebrae were exposed. A hole was made using a 23 G3/4 needle passing through the dura via the cisterna magna. One end of a 2-3 mm PE10 cannula (0.011 “I.D., 0.007” thick, 0.024″ O.D., 6.5 cm long) was inserted into the subarachnoid space at the cervical cord so as to avoid damage to neuronal tissue (FIG. 3). The cannula was fixed with cyanoacrylic glue to the peripheral tissue. The other end of PE10 was used for administration of a nociceptive stimulus, such as arachidonic acid (AA; 3.25 μg/2 μl) and subsequently for collecting cerebrospinal fluid (CSF) every thirty minutes thereafter during the 11-hour experimental period. The cannula filled with CSF immediately after the cannulation.
Air was infused to inject AA to the subarachnoid space. The muscles and skin were closed with surgical staples. The rat was then removed from the stereotaxic unit and placed on a heat pad and continuously monitored.
In the interaction study, the leukotriene C4 and D4 antagonist, pranlukast, was administered (490 mg/kg, i.p.) thirty minutes before administration of arachidonic acid (AA). If the effects of the anesthesia appeared to be wearing off, an additional 0.05-0.1 ml pentobarbital (50 mg/ml, i.p.) dose was administered. If at any time during the experiment, the animal appeared to be in pain or distress, the study was immediately stopped and the animal was euthanized.
In the present study, the volume (μl) of cerebrospinal fluid (CSF) and white blood cell (WBC) counts in CSF was measured every thirty minutes for 11 hours from the same rat. One side of the cannula (PE10) was inserted into the subarachnoid space under pentobarbital anesthesia, avoiding neuronal damage (FIG. 3). If the brain tissue is damaged, the volume of CSF and WBC increases immediately without the administration of arachidonic acid. Since there are no WBC in the CSF in the normal rat, only rats that had no WBC in the CSF immediately after the cannulation were used. Another side of the cannula remained open and was used for the administration of nociceptive stimuli (arachidonic acid, LPS, dextran, etc.) and subsequently for collecting the CSF every thirty minutes during the experiment. The CSF volume was measured using a micropipette and WBC in the CSF were counted by means of a hemacytometer.

The conditions of data set [2]: in vivo; cited from earlier work.

Consider `CCCCC/C=C\C/C=C\C/C=C\C/C=C\CCCC(=O)O` [arachidonic acid, Arachidonic acid], for which the “maximum CSF volume after administration” value in data set [1] (arachidonic acid 3.2 μg/2 μl into subarachnoid space, collected every thirty minutes, rat) lay in the range of 100 to 120 µL. Besides, the “CSF volume maintained for every thirty minutes” value in data set [1] (arachidonic acid 3.2 μg/2 μl, during 4.0-5.0 hours post-administration) lay in the range of 60 to 80 µL. In data set [1] (arachidonic acid into subarachnoid space, rat), the “time to peak / maximum CSF volume” value is no more than 3.5 h. Consider `CC(C)(O)c1ccccc1CC[C@@H](SCC1(CC(=O)O)CC1)c1cccc(/C=C/c2ccc3ccc(Cl)cc3n2)c1` [montelukast], for which the “passage of the blood-brain barrier” value in data set [2] is recorded as “does not pass, or passes the blood-brain barrier at most at a very minimal level”. For the molecule `COc1cc(C(=O)NS(=O)(=O)c2ccccc2C)ccc1Cc1cn(C)c2ccc(NC(=O)OC3CCCC3)cc12` [zafirlukast], the “passage of the blood-brain barrier” value in data set [2] is given as “does not pass, or passes the blood-brain barrier at most at a very minimal level”.
